Results from patent publication US11465998B2, “Therapeutic compounds and methods of use thereof” (Regents of the University of Minnesota, priority 2019, dated 2022).
“Also recorded” adds a separate entry of the source.

Test system: RAW264.7 murine macrophages
Experiment: Cytokine/chemokine induction in wild-type RAW264.7 murine macrophages (multiplexed immunoassay)
Assay type: cell-based
Conditions: wild-type RAW264.7 murine macrophage cell line
Description: Cytokine induction by 7e and 7f was examined in murine-derived cell lines. […] The absence of activity was not due to extensive plasma protein binding by re-examining under near-serum-free conditions.
Example 5: High-throughput screens in porcine blood: Curated compound collections were obtained from the Institute for Therapeutics Discovery & Development at the University of Minnesota. Compound transfers from source (80 nL of 10 mM stocks) to assay plates were performed using an Echo 550 acoustic liquid handler (Labcyte, Sunnyvale, Calif.). For most libraries, a target final concentration of 10 μM of compound (in a final volume of 80 μL for the assay described below) was achieved. Compound plates were hermetically sealed and stored at −80° C. until used. Fresh, heparin-anticoagulated porcine blood from healthy animals were obtained under USDA supervision from Midwest Research Swine, LLC (Glencoe, Minn.). 80 μL of hematocrit-enriched porcine blood (low-speed centrifugation, followed by resuspension in DMEM supplemented with 10% fetal bovine serum) was added to compound plates and incubated for 15 h. […] NF-κB translocation was assayed spectrophotometrically using an alkaline phosphatase-specific chromogen (present in HEK-detection medium as supplied by InvivoGen) at 620 nm using a SpectraMax M4 multimode microplate reader (Molecular Devices, Sunnyvale, Calif.). […] Example 7: Human NOD1/2-specific reporter gene assays (NF-κB induction), and TLR-2/-3/-4/-5/-7/-8/-9/STING/ISG counter-screens: The induction of NF-κB was quantified using human TLR-2/-3/-4/-5/-7/-8/-9/NOD-1/NOD-2/STING/ISG-specific, rapid-throughput, liquid handler-assisted reporter gene assays as previously described by us (Wu, W. et al. J. Med. Chem. 2010, 53, 3198-3213; Shukla, N. M. et al. J. Med. Chem. 2010, 53, 4450-4465; Agnihotri, G. et al. J. Med. Chem. 2011, 54, 1490-1510 and Ukani, R. et al. Bioorg. Med. Chem. Lett. 2012, 22, 293-295). […]

Compound | induction of chemokines and proinflammatory cytokines
CCCCCc1nc2ccccc2n1-c1csc(C(N)=O)c1 [Compound 7e, 4-(2-Pentyl-1H-benzo[d]imidazol-1-yl)thiophene-2-carboxamide] | potently immunostimulatory; also recorded: induction of chemokines and cytokines
CCCCCCc1nc2ccccc2n1-c1csc(C(N)=O)c1 [Compound 7f, 4-(2-Hexyl-1H-benzo[d]imidazol-1-yl)thiophene-2-carboxamide] | potently immunostimulatory; also recorded: essentially identical to that of 7e
